Common to all, as to type: cell-based, human
One data set relates to HT-29 colon cancer cells. Nature of the data set: Cell growth inhibition (CellTiter-Glo ATP assay), HT-29 cells with wild-type Ras. The following applies: Homo sapiens, HT-29. The protocol:
(§1) This example illustrates cell growth assays employed in the present invention.
(§2) Normal rat kidney (NRK) and Ki-Ras transformed NRK cells (K-NRK) were obtained from ATCC, and were cultured according to supplier recommendations. CellTiter-Glo ATP cell growth assay reagents were obtained from Promega and used according to the manufacturer's protocol. Inhibitors of EGFR, Raf, and MEK were obtained from Selleck Chemicals. Cells were plated at a density of 5,000 cells per well in 96-well microplates or 1,250 cells per well in 384-well plates, and allowed to attach for at least 4 h. Test compounds were dissolved in dimethyl sulfoxide (DMSO), and this working stock was further diluted in growth medium for addition to cell cultures. Serial dilutions of the test compound were prepared in growth medium containing an equal amount of DMSO not exceeding 0.2% final concentration. Each compound concentration was tested in at least 3 separate samples per cell line. At the end of a 3-day treatment period, growth inhibition was analyzed using a bioluminescent assay of ATP concentration (Promega CellTiter-Glo) according to the manufacturer's protocol. Resulting luminescence was measured using the luminescence cartridge of the Molecular Devices Spectramax Paradigm microplate reader. Relative growth inhibition for each sample was determined by comparison with the values obtained for vehicle treated control samples. Growth inhibition values were plotted with the GraphPad Prism5 software using the 4-parameter logistic fit to obtain IC50 values, which corresponds to the growth inhibitory potency of the compound.
(§3) This example illustrates effects of exemplary compounds of the present invention on cancer cells having activated or mutated Ras compared to wild-type (WT) Ras. […] A549 lung cancer cells, which harbor a mutation in the K-Ras oncogene were treated for three days with the compounds.
(§4) Cells were seeded in 384-well plates and allowed to attach. Ten-fold serial dilutions of compounds were tested. Each compound concentration was tested in at least 3 separate samples per cell line.
(In general: Cellular ATP, detected with luciferase, serves as a proxy for viable cell number.)

In another data set the test system is A549 lung cancer cells. Nature of the data set: Cell growth inhibition (CellTiter-Glo ATP assay), A549 cells with mutant K-Ras. Conditions: for IC50: Homo sapiens, A549, 72 h, growth inhibition, three days treatment, K-Ras mutant lung cancer cells, read-out: A549 (Ras-activated) IC50; for Selectivity HT-29/A549: ratio IC50 HT-29 (WT Ras) / IC50 A549 (Ras-activated). The protocol:
This example illustrates cell growth assays employed in the present invention. Cells used in such assays included A-549, HT-29, MDA-MB-231, Colo-205, Caco2, HCT-116, SW-480, and DLD-1 human cancer cells obtained from the American Type Culture Collection (ATCC).
as §2, with “Human tumor cells were cultured using standard methods in RPMI-1640 growth medium supplemented with 5% fetal bovine serum (FBS). Normal” for “Normal”
as §3

In another data set the test system is SW-480 cells. Nature of the data set: Cell growth inhibition (CellTiter-Glo), SW-480 colorectal cells with activated Ras. The following applies: for IC50: Homo sapiens, SW480, growth inhibition, 384-well plates, Table 3, read-out: SW-480 (Ras Activated IC50); for Selectivity Caco-2/SW-480: ratio IC50 Caco-2 (WT Ras) / IC50 SW-480 (Ras activated). The protocol: as §1, §2
The growth inhibitory activity of the compounds was tested using the CellTiter-Glo assay. Cells were seeded in 384-well plates and allowed to attach, then ten-fold serial dilutions of compounds were tested. Each concentration was tested in at least 3 separate samples per cell line.
as §4

A further data set concerns Caco-2 cells. In words: Cell growth inhibition (CellTiter-Glo), Caco-2 colorectal cells with wild-type Ras. Conditions: Homo sapiens, Caco-2; growth inhibition, 384-well plates, Table 3; read-out: Caco-2 (WT Ras) IC50.
Data set [1] concerns HCT-116 colon tumor cells. In words: Cell growth inhibition (CellTiter-Glo), HCT-116 colon tumor cells expressing mutant Ras. The following applies: ratio IC50 HT-29 (WT Ras) / IC50 HCT-116 (mutant Ras), 5000 cells/well, 96-well plates. The protocol:
This example illustrates cell growth assays employed in the present invention. […] Normal rat kidney (NRK) and Ki-Ras transformed NRK cells (K-NRK) were obtained from ATCC, and were cultured according to supplier recommendations. CellTiter-Glo ATP cell growth assay reagents were obtained from Promega and used according to the manufacturer's protocol. Inhibitors of EGFR, Raf, and MEK were obtained from Selleck Chemicals. Cells were plated at a density of 5,000 cells per well in 96-well microplates or 1,250 cells per well in 384-well plates, and allowed to attach for at least 4 h. Test compounds were dissolved in dimethyl sulfoxide (DMSO), and this working stock was further diluted in growth medium for addition to cell cultures. Serial dilutions of the test compound were prepared in growth medium containing an equal amount of DMSO not exceeding 0.2% final concentration. Each compound concentration was tested in at least 3 separate samples per cell line. At the end of a 3-day treatment period, growth inhibition was analyzed using a bioluminescent assay of ATP concentration (Promega CellTiter-Glo) according to the manufacturer's protocol. Resulting luminescence was measured using the luminescence cartridge of the Molecular Devices Spectramax Paradigm microplate reader. Relative growth inhibition for each sample was determined by comparison with the values obtained for vehicle treated control samples. […] This example illustrates use of well-established human colon tumor cell lines with widely divergent Ras activation status to determine selectivity values for exemplary compounds of the present invention. […] Cells were plated at 5000 cells/well in 96-well plates, and viable cell numbers were measured using the Cell Titer Glo ATP luminescence assay (Promega). […] Cells were seeded in 384-well plates and allowed to attach. Ten-fold serial dilutions of compounds were tested. Each compound concentration was tested in at least 3 separate samples per cell line.

Where [2] appears, read: growth inhibition, colon cancer cells with wild-type Ras, Table 2, read-out: HT-29 (WT Ras) IC50.

The record followed here is patent US9931315B2, “Method of selectively inhibiting Ras-mediated tumor growth in humans” (ADT PHARMACEUTICALS, INC., priority 2014, dated 2018).

Structures are written as SMILES. Where two headings read alike, the source gives them in different places.

Regarding `COc1ccc2c(c1)C(CC(=O)NCc1ccco1)=C(C)/C2=C/c1cc(C)c(O)c(C)c1` [Compound 001, (Z)—N-(furan-2-ylmethyl)-2-(1-(4-hydroxy-3,5-dimethylbenzylidene)-5-methoxy-2-methyl-1H-inden-3-yl)acetamide], the half-maximal inhibitory concentration (IC50) – broadly, the concentration at which inhibition is half-maximal – amounted to 6.28 µM with HT-29 colon cancer cells (setting [2]), 0.716 µM in the data set with A549 lung cancer cells, 0.435 µM in the data set on SW-480 cells and 1.1 µM in the data set on Caco-2 cells. Moreover, the “Selectivity HT-29/A549” value with A549 lung cancer cells came out at 9. The “Selectivity Caco-2/SW-480” value in the data set with SW-480 cells was determined as 3.
As to `COc1cc(/C=C2/C(C)=C(CC(=O)NCc3ccco3)c3cc(F)ccc32)cc(OC)c1OC=O` [Compound 002, (Z)-2-(5-fluoro-1-(4-formoxy-3,5-dimethoxybenzylidene)-2-methyl-1H-inden-3-yl)-N-(furan-2-ylmethyl)acetamide], in data set [1], the HT-29/HCT-116 selectivity values turned out to be 112.
As for `COc1ccc2c(c1)C(CC(=O)NCCN(C)C)=C(C)/C2=C/c1cc(OC)c(O)c(OC)c1` [Compound 003, (Z)—N-(2-(dimethylamino)ethyl)-2-(1-(4-hydroxy-3,5-dimethoxybenzylidene)-5-methoxy-2-methyl-1H-inden-3-yl)acetamide], the IC50 with HT-29 colon cancer cells (setting [2]) came out at 4.12 µM; with A549 lung cancer cells it was 3.65 µM. For the same compound, the “Selectivity HT-29/A549” value in the data set with A549 lung cancer cells was found to be 1.
As to `COc1ccc2c(c1)C(CC(=O)Nc1cccnc1)=C(C)/C2=C/c1cc(OC)c(O)c(OC)c1` [Compound 004, (Z)-2-(1-(4-hydroxy-3,5-dimethoxybenzylidene)-5-methoxy-2-methyl-1H-inden-3-yl)-N-(pyridin-3-yl)acetamide], the IC50 in the data set with HT-29 colon cancer cells (setting [2]) was determined as 0.916 µM; with A549 lung cancer cells, 0.079 µM; in the data set on SW-480 cells it was 0.877 µM; with Caco-2 cells it was 1.6 µM. Moreover, the “Selectivity HT-29/A549” value in the data set with A549 lung cancer cells was 12. Also, in the data set with SW-480 cells, the “Selectivity Caco-2/SW-480” value is on record as 2.
Consider `COc1ccc2c(c1)C(CC(=O)NC1CCN(C)C1)=C(C)/C2=C/c1cc(OC)c(O)c(OC)c1` (stereo not shown) [Compound 005, (Z)-2-(1-(4-hydroxy-3,5-dimethoxybenzylidene)-5-methoxy-2-methyl-1H-inden-3-yl)-N-(1-methylpyrrolidin-3-yl)acetamide], for which the concentration for half-maximal inhibition (IC50) with HT-29 colon cancer cells (setting [2]) turned out to be 7.19 µM. For the same compound, in the data set on A549 lung cancer cells, the IC50 was 5.94 µM and the “Selectivity HT-29/A549” value was found to be 1.
For `COc1cc2c(cc1OC)/C(=C\c1cc(OC)c(O)c(OC)c1)C(C)=C2CC(=O)NCc1ccco1` [Compound 008, (Z)—N-(furan-2-ylmethyl)-2-(1-(4-hydroxy-3,5-dimethoxybenzylidene)-5,6-dimethoxy-2-methyl-1H-inden-3-yl)acetamide], the half-maximal inhibitory concentration (IC50) came out at 1.54 µM in the data set with HT-29 colon cancer cells (setting [2]), 0.167 µM in the data set with A549 lung cancer cells, 0.139 µM with SW-480 cells and 1.33 µM in the data set on Caco-2 cells. Moreover, in the data set on A549 lung cancer cells, the “Selectivity HT-29/A549” value is reported as 9. In the data set with SW-480 cells, the “Selectivity Caco-2/SW-480” value is on record as 10.
As to `COc1ccc2c(c1)C(CC(=O)NCc1ccco1)=C(C)/C2=C/c1ccc(O)c(OC)c1` [Compound 012, (Z)—N-(furan-2-ylmethyl)-2-(1-(4-hydroxy-3-methoxybenzylidene)-5-methoxy-2-methyl-1H-inden-3-yl)acetamide], the IC50 stood at 0.9 µM with HT-29 colon cancer cells (setting [2]) and 0.17 µM with A549 lung cancer cells. In the data set on A549 lung cancer cells, the “Selectivity HT-29/A549” value worked out at 5.
For `COc1ccc2c(c1)C(CC(=O)NCc1ccco1)=C(C)/C2=C/c1cc(Br)c(O)c(OC)c1` [Compound 013, (Z)-2-(1-(3-bromo-4-hydroxy-5-methoxybenzylidene)-5-methoxy-2-methyl-1H-inden-3-yl)-N-(furan-2-ylmethyl)acetamide], in that order: 0.73 µM, 0.3 µM and 2.
The matching figures for `COc1ccc2c(c1)C(CC(=O)NCc1ccco1)=C(C)/C2=C/c1cc(Cl)c(O)c(OC)c1` [Compound 014, (Z)-2-(1-(3-chloro-4-hydroxy-5-methoxybenzylidene)-5-methoxy-2-methyl-1H-inden-3-yl)-N-(furan-2-ylmethyl)acetamide]: 0.5 µM, 0.11 µM and 5.
Take `COc1cc(/C=C2/C(C)=C(CC(=O)NCc3ccccc3)c3cc(F)ccc32)cc(OC)c1O` [Compound 015, (Z)—N-benzyl-2-(5-fluoro-1-(4-hydroxy-3,5-dimethoxybenzylidene)-2-methyl-1H-inden-3-yl)acetamide]: the HT-29/HCT-116 selectivity values in data set [1] was found to be 80.
On the same count and under the same terms, next, `COc1cc(/C=C2/C(C)=C(CC(=O)NCc3cccn3C)c3cc(F)ccc32)cc(OC)c1O` [Compound 019, (Z)-2-(5-fluoro-1-(4-hydroxy-3,5-dimethoxybenzylidene)-2-methyl-1H-inden-3-yl)-N-((1-methyl-1H-pyrrol-2-yl)methyl)acetamide]: 188; `COc1ccc2c(c1)C(CC(=O)NCc1ccc[nH]1)=C(C)/C2=C/c1cc(OC)c(O)c(OC)c1` [Compound 022, (Z)—N-((1H-pyrrol-2-yl)methyl)-2-(1-(4-hydroxy-3,5-dimethoxybenzylidene)-5-methoxy-2-methyl-1H-inden-3-yl)acetamide]: 117; `COc1cc(/C=C2/C(C)=C(CC(=O)NCc3ccco3)c3cc(F)ccc32)cc(OC)c1OS(C)(=O)=O` [Compound 029, (Z)-2-(5-fluoro-1-(4-mesyloxy-3,5-dimethoxybenzylidene)-2-methyl-1H-inden-3-yl)-N-(furan-2-ylmethyl)acetamide]: 35.
As to `COc1cc(/C=C2/C(C)=C(CC(=O)Nc3ccccc3)c3cc(F)ccc32)cc(OC)c1O` [Compound 035, (Z)-2-(5-fluoro-1-(4-hydroxy-3,5-dimethoxybenzylidene)-2-methyl-1H-inden-3-yl)-N-phenylacetamide], the HT-29/HCT-116 selectivity values in data set [1] is 31.
`OCCn1cc(-c2ccc3c(c2)CC/C3=N\O)c(-c2ccncc2)n1` [GDC0879, reference compound]: in the data set with HT-29 colon cancer cells (known Ras pathway inhibitors, 384-well plates, Table 4, read-out: HT-29 IC50), the half-maximal inhibitory concentration (IC50) worked out at 23.6 µM.
